In patent US20150004237A1, “CELLULOSE DERIVATIVES FOR INHIBITING CRYSTALLIZATION OF POORLY WATER-SOLUBLE DRUGS” (Virginia Tech Intellectual Properties, Inc., priority 2012, published 2015):
In brackets after ≈: the same amount, converted by molar mass. Several values for one entry are separate records, joined by “and”; a condition that tells them apart may be missing. Identical values can stand only once. Like-named read-outs stand apart in the source and are kept apart here. One block for each molecule: values may come before it.

Columns and labels:
[1] = Quercetin release profile; type: physicochemical; details: pH 6.8 buffer, Que 0.07 mg/mL
Method: In the measurement of drug release profiles, maximum Que concentration was fixed at 0.07 mg/mL in pH 6.8 buffer solution. The UV-vis absorption of the solution was measured and plotted vs. time. Release profiles were determined.

[2] = cited from earlier work
[3] = pH 6.8; cited from earlier work
[4] = Ellagic acid release profile; type: physicochemical; details: pH 6.8 buffer
[5] = Formation of X-ray amorphous resveratrol-polymer dispersion by rotary evaporation; type: physicochemical; details: classification system of Van Eerdenbrugh et al.
Method: All mixtures were visually inspected to confirm that the resveratrol and the polymers were fully dissolved, and that the systems formed uniform one-phase solutions. […] The samples were then placed under vacuum for 24 h to remove any residual solvents. The obtained material was subsequently cryomilled in a liquid nitrogen bath for a total milling time of 4 min. Powder X-Ray Diffraction. Immediately after cryomilling, the samples were analyzed using a Shimadzu XRD-6000 (Shimadzu Corporation, Kyoto, Japan) equipped with a Cu-Kα source and set in Bragg-Brentano geometry between 5° and 35° 2θ at 8°/min with a 0.04° step size. Samples were also analyzed over time following the storage treatments listed above. […] Samples where sharp peaks were observed were deemed crystalline, and those samples that lacked sharp peaks were labeled X-ray amorphous. Physical mixtures of select resveratrol-polymer systems were made to provide a fully crystallized reference. The percent crystallized for certain samples was estimated from a calibration curve generated from analysis of the diffraction patterns of the different solid dispersions, spiked with increasing levels of crystalline resveratrol. […] The crystallinity of these calibration samples was measured immediately after preparation.

[6] = Ritonavir seed crystal size and morphology by SEM; type: physicochemical; details: After Crystal Growth (S = 15.4)
Description: Characterization of Seed Crystals. Ritonavir seed crystals were characterized using scanning electron microscopy (SEM), powder X-ray diffraction analysis (PXRD), and differential scanning calorimetry (DSC). SEM was used to determine the size and shape of ritonavir crystals, while PXRD and DSC were used to evaluate the polymorph of the seed crystals. Ritonavir was used as received from the manufacturer, and prior to use, the seeds were sieved to a size below 250 p.m. Seed crystals used for SEM analysis were prepared by dispersing the seeds in water and equilibrating the water-seed crystal suspension for approximately 24 h. A few drops of the suspension were placed on a glass slide and dried overnight in a vacuum oven at room temperature for approximately 24 h. Before SEM imaging, the glass slides were mounted using double-sticky copper tape and sputter-coated with platinum for 60 s. SEM imaging was performed using an FEI NOVA nanoSEM field emission SEM using an Everhart-Thornley (ET) detector and a through-thelens detector (TLD). The following imaging parameters were used: 5 kV accelerating voltage, approximately 4-5 mm working distance, beam spot size of 3, 30 μm aperture, and 100-10,000× magnifications. The SEM images were analyzed using ImageJ, processing and analysis in Java (National Institutes of Health (NIH)). Several representative samples of seed crystals were obtained before and after crystal growth in the absence and presence of predissolved additive. For each sample, a total of 50 seeds were analyzed to ensure a representative sample, and the average aspect ratio of the crystals was estimated from the average length and width of the crystals.
The polymorphic form of the seed crystals after the crystal growth experiment was also confirmed to be Form II by PXRD. The average length, width, and aspect ratio of ritonavir seed crystals before and after the crystal growth experiment in the presence of the CAP Adp 0.85, Pn-IPAAmd, and CAP Adp 0.85/Pn-IPAAmd polymer combination at initial S values of 7.6 and 15.4 are summarized in Table 6.

[7] = Dynamic light scattering particle size of ritonavir during de-supersaturation; type: physicochemical; details: ritonavir 25 μg/mL
Method: Dynamic light scattering (DLS) was used to monitor changes in particle size as a function of time during de-supersaturation experiments. DLS experiments were performed using a Nano-Zetasizer (Nano-ZS) and its software, dispersion technology software (DTS). A 173° backscatter detector was used in order to minimize the signal from large dust particles or other large contaminants. A quartz flow-through cuvette, coupled with a pump was used for continuous sampling. […] Particle size experiments were performed in the absence and presence of pre-dissolved polymers. As an example, ritonavir was used at an initial concentration of 25 μg/mL with a polymer concentration of 50 μg/mL. The buffer solution was allowed to equilibrate at 37° C. prior to addition of solubilized ritonavir. Data collection began after generation of supersaturation. A stir-plate was used to stir the solution at a speed of 400 rpm.

[8] = Crystal growth rate of ritonavir (seeded desupersaturation); type: physicochemical
[9] = Theoretical amorphous solubility with moisture sorption effect; type: physicochemical; details: 37° C.
Description: Amorphous solubility can be approximated by estimating the free energy difference between crystalline and amorphous forms using the Hoffman equation: […]
The ratio of amorphous and crystalline solubility (Samorphous/Scrystalline) is then estimated from the free energy difference (ΔGa→σ) calculated from heat of fusion (ΔHf) and melting temperature (Tm) of the crystalline material determined from DSC analysis, as well as the experimentally determined crystalline solubility:
See Murdande, S. B., Pikal, M. J. Shanker, R. M. & Bogner, R. H., “Solubility Advantage of amorphous pharmaceuticals: I. A thermodynamic analysis,” J. Pharm. Sci., 99(3): 1254-1264, (2009) (“Murdande I”) and Murdande, S. B., Pikal, M. J. Shanker, R. M. & Bogner, R. H., “Solubility Advantage of amorphous pharmaceuticals: II. Application of quantitative thermodynamic relationships for prediction of solubility enhancement in structurally diverse insoluble pharmaceuticals,” Pharm. […]
The moisture sorption profile of amorphous ritonavir was determined at 37° C. using a TA Q5000 dynamic vapor sorption analyzer (TA Instruments, New Castle, Del.) equipped with a humidity controlled chamber and an ultrasensitive thermobalance. […] Subsequently, the moisture sorption isotherm was measured by equilibrating the sample under controlled relative humidity (RH) ranging from 5% RH to 95% RH, in 10% RH intervals. […]

[10] = Nucleation-induction time of ritonavir from supersaturated solution; type: physicochemical; details: initial 20 μg/mL, no polymer, pH 6.8, 37° C.
Method: The period between the generation of supersaturation and initiation of nucleation was determined by monitoring the absorbance at 280 nm using an ultraviolet/visible spectrometer, fiber optic coupled with a dip probe (SI Photonics® Tucson, Ariz.). Wavelength scans were acquired every 45 seconds. Precipitation was characterized by an increased extinction at 280 nm wavelength. A supersaturated solution of ritonavir was generated by adding 0.4 mL of ritonavir dissolved in methanol at a concentration 4 mg/mL, to 80 mL sodium phosphate buffer, pH 6.8, at 37° C., providing an initial solution concentration of ritonavir of 20 μg/mL. The drug of compositions of the invention can be present in any amount ranging from about 0-100 μg/mL, such as from about 5-10 μg/mL, or from 15-20 μg/mL, or from 25-30 μg/mL, or from 35-50 μg/mL, or from 55-75 μg/mL, or from 80-90 μg/mL. Depending on the drug compound and the types and amounts of polymers used, the most preferred concentration of drug in the compositions ranges from about 5-25 μg/mL. A syringe pump (Harvard Apparatus, Holliston, Mass.) was used to control the rate of addition of organic solution of ritonavir to buffer solution; the flow rate was 0.20 mL/min. […] The ability of the various polymers to affect the nucleation of ritonavir was evaluated using a polymer concentration of 5 μg/mL. […]

[11] = cited from earlier work; remark: listed apart in the source
[12] = Crystal growth rate of celecoxib (seeded desupersaturation); type: physicochemical; details: supersaturation ratio of 1.2
[13] = physchem; details: 37 °C, pH 6.8, aqueous buffer, thermodynamic from solid
[14] = Crystal growth rate of efavirenz (seeded desupersaturation); type: physicochemical; details: supersaturation ratio of 1.2
[15] = pH 6.8
[16] = After Crystal Growth (S = 7.6), values from ref 31 / ref 38
[17] = After Crystal Growth (S = 7.6), values from ref 31 / ref 38, listed as RTV
[18] = Before Crystal Growth, values from ref 31

Molecule: O=c1c(O)c(-c2ccc(O)c(O)c2)oc2cc(O)cc(O)c12 [Que, Quercetin]
Que dissolution / release after 1 h [1]: 0.7%

Molecule: C=CC(=O)O [Acrylic acid]
pKa [2]: 4.76

Molecule: Poly vinylpyrrolidone K 29/32 [PVP]
Equilibrium solubility of ritonavir in the presence of polymer (Table 7) [3]: 1.2 ± 0.05 µg/mL

Molecule: O=c1oc2c(O)c(O)cc3c(=O)oc4c(O)c(O)cc1c4c23 [EA, Ellagic Acid]
EA release after 24 h [4]: 7% | time of maximum EA release [4]: 2 h | maximum EA release ([4]; 25° C., EA 0.05 mg/mL): 11% | aqueous solubility ([2]; pH 7.4): 9.3 µg/mL (≈ 30.8 µM)

Molecule: Ritonavir
aspect ratio [6]: 12.1 | crystal morphology [6]: needle-like | length [6]: 50.9 ± 14.4 μm | width [6]: 4.2 ± 1.2 μm | time particle size was maintained ([7]; no polymer): ~100 min | size of ritonavir particles ([7]; polymer 50 μg/mL or none, pH 6.8, 37° C., initially formed particles): 350-450 nm | initial bulk crystal growth rate of ritonavir ([8]; 100 mM sodium phosphate buffer, initial 10 μg/mL, no polymer, first 2 min): 1.56 µg/mL/min | normalized crystal growth rate of ritonavir ([8]; supersaturation ratio of 1.2): 3.94 μg mL^−1 min^−1 m^−2 | calculated amorphous solubility with moisture sorption correction [9]: 20.6 µg/mL | induction time of ritonavir [10]: approximately 119 minutes | Equilibrium solubility of ritonavir, no polymer (Table 7) [3]: 1.3 ± 0.10 µg/mL | aspect ratio [11, 16]: 8.8 and 7.7 | crystal morphology [11, 16]: needle-like | length [11, 16]: 50.4 ± 18.6 μm | width [11, 16]: 5.7±1.4 μm | aspect ratio [11, 17]: 8.8 | width [11, 17]: 5.7 ± 1.4 μm | aspect ratio [11, 18]: 7.7 | crystal morphology [11, 18]: needle-like | length [11, 18]: 44.4 ± 15.2 μm | width [11, 18]: 5.8 ± 1.9 μm

Molecule: poly(N-iso-propylacrylamide) [Pn-IPAAmd]
Equilibrium solubility of efavirenz in the presence of polymer [15]: 8.7 ± 0.07 µg/mL | Solubility of Ritonavir in the presence of polymer [15]: 1.3 ± 0.01 µg/mL | Equilibrium solubility of ritonavir in the presence of polymer (Table 7) [3]: 1.3 ± 0.01 µg/mL

The next lines start with results.

crystallization tendency during production [5]: rapid crystallizer
Molecule: Oc1ccc(/C=C/c2cc(O)cc(O)c2)cc1 [Resveratrol]

solubility thermodynamic at 48 h [13]: 1.5 µg/mL (≈ 3.93 µM)
Molecule: Cc1ccc(-c2cc(C(F)(F)F)nn2-c2ccc(S(N)(=O)=O)cc2)cc1 [celecoxib]
normalized crystal growth rate of celecoxib [12]: 18.20 μg mL^−1 min^−1 m^−2

solubility thermodynamic at 48 h [13]: 8.2 µg/mL (≈ 26 µM)
Molecule: O=C1Nc2ccc(Cl)cc2[C@@](C#CC2CC2)(C(F)(F)F)O1 [efavirenz]
normalized crystal growth rate of efavirenz [14]: 59.32 μg mL^−1 min^−1 m^−2
